Measurements as given in patent publication US8435978B2, “Substituted sulfonamide compounds” (Gruenenthal GmbH, priority 2006, dated 2013).
Where a name gives a salt, the structure may show the parent alone.

Key:
human B1R receptor = biological target: T1, human B1R receptor (Homo sapiens, UniProt P46663); assay: Functional study on the bradykinin receptor 1 (B1R), FLIPR Ca2+ assay, hB1R cells; format: cell-based; conditions: agonist Lys-Des-Arg9-bradykinin 0.5 nM, % inhibition compared with the maximum achievable inhibition; for inhibition at 10 µM: CHO-K1, test substance 10 μM, read-out: B1R Antagonism, human [10 μM] % Inhibition
T1 construct: host or cells: CHO K1 cells (Chinese hamster ovary), stably transfected
T1 sequence (P46663 1-353): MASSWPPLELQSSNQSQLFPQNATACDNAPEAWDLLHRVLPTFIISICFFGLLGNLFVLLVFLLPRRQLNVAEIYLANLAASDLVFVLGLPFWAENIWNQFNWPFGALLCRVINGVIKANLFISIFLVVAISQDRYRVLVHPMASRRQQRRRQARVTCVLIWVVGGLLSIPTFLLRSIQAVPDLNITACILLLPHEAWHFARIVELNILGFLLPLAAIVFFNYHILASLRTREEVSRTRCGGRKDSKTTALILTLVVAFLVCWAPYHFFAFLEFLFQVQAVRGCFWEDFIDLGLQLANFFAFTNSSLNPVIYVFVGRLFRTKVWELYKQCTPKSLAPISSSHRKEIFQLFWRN
Method in brief: (§1)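 FLIPR Ca2+ assay in recombinant CHO K1 cells (human or rat B1R), Fluo-4 dye; 10 μM compound, 10 min, then EC-level agonist per species (0.5 nM Lys-Des-Arg9-BK human / 100 nM Des-Arg9-BK rat). Output: % inhibition vs maximum.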

B1R receptor of the rat = biological target: T2, B1R receptor of the rat (Rattus norvegicus, UniProt P97583); assay: Functional study on the bradykinin receptor 1 (B1R), FLIPR Ca2+ assay, rB1R cells; format: cell-based; conditions: agonist Des-Arg9-bradykinin 100 nM, % inhibition compared with the maximum achievable inhibition; for inhibition at 10 µM: CHO-K1, test substance 10 μM, read-out: B1R Antagonism, rat [10 μM] % Inhibition
T2 construct: host or cells: CHO K1 cells (Chinese hamster ovary), stably transfected
T2 sequence (P97583 1-337): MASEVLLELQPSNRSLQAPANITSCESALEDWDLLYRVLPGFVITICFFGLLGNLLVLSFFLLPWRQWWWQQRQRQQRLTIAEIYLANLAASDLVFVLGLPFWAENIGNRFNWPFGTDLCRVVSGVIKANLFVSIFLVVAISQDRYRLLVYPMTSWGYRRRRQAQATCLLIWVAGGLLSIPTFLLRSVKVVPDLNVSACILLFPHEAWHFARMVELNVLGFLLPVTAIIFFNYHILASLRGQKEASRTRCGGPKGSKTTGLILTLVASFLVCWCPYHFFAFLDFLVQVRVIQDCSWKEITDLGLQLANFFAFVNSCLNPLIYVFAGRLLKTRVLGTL
Method in brief: as §1

Row | SMILES | inhibition at 10 µM (human B1R receptor) | inhibition at 10 µM (B1R receptor of the rat) | B1R Antagonism, human [10 μM] % Inhibition (human B1R receptor; test substance 10 μM, hB1R CHO K1 cells) | B1R Antagonism, rat [10 μM] % Inhibition (B1R receptor of the rat; test substance 10 μM, rB1R CHO K1 cells)
1 | O=C(COCC1CCCN1S(=O)(=O)c1c(Cl)cc(Cl)cc1Cl)NCc1ccc(N2CCOCC2)cc1 (stereo not drawn) [Example 580, N-(4-morpholinobenzyl)-2-((1-(2,4,6-trichlorophenylsulfonyl)pyrrolidin-2-yl)methoxy)acetamide] | 39.1% | 88.5% | – | –
2 | COc1cc(C)c(S(=O)(=O)N2CCCCC2COCC(=O)NCc2ccc(CN3CCN(C)CC3)cc2)c(C)c1 (stereo not drawn) [Example 7, 2-[1-(4-methoxy-2,6-dimethyl-phenylsulfonyl)-piperidin-2-ylmethoxy]-N-[4-(4-methyl-piperazin-1-ylmethyl)-benzyl]-acetamide] | 102% | 99.3% | – | –
3 | COc1cc(C)c(S(=O)(=O)N2CCCCC2COCC(=O)N2CCN(C(=O)OC(C)(C)C)CC2)c(C)c1 (stereo not drawn) [Example 101, tert-butyl 4-(2-((1-(4-methoxy-2,6-dimethylphenylsulfonyl)piperidin-2-yl)methoxy)acetyl)piperazin-1-carboxylate] | 100% | 100% | – | –
4 | CCn1nccc1NC(=O)COCC1CCCCN1S(=O)(=O)c1c(C)cc(OC)cc1C (stereo not drawn) [Example 257, N-(1-ethyl-1H-pyrazol-5-yl)-2-((1-(4-methoxy-2,6-dimethylphenylsulfonyl)piperidin-2-yl)methoxy)acetamide] | 34.3% | 99.9% | – | –
5 | CN1CCCN(C(=O)COCC2CCCCN2S(=O)(=O)c2c(Cl)cccc2Cl)CC1 (stereo not drawn) [Example 483, 2-((1-(2,6-dichlorophenylsulfonyl)piperidin-2-yl)methoxy)-1-(4-methyl-1,4-diazepan-1-yl)ethanone] | 103% | 104% | – | –
6 | Cc1cccc(Cl)c1S(=O)(=O)N1CCC[C@H]1COCC(=O)N1CCN(CC2CCN(C)CC2)CC1 [Example 163, (S)-2-((1-(2-chloro-6-methylphenylsulfonyl)pyrrolidin-2-yl)methoxy)-1-(4-((1-methylpiperidin-4-yl)methyl)piperazin-1-yl)ethanone dihydrochloride] | 95% | 101% | – | –
7 | COc1cc(C)c(S(=O)(=O)N2CCCCC2COCC(=O)N2CCC(c3ccccn3)C2)c(C)c1 (stereo not drawn) [Example 236, 2-((1-(4-methoxy-2,6-dimethylphenylsulfonyl)piperidin-2-yl)methoxy)-1-(3-(pyridin-2-yl)pyrrolidin-1-yl)ethanone] | 95.9% | 99.6% | – | –
8 | Cc1ccc2ccccc2c1S(=O)(=O)N1CCCCC1COCC(=O)N1CCN(C2CCN(C)CC2)CC1 (stereo not drawn) [Example 157, 2-((1-(2-methylnaphthalen-1-ylsulfonyl)piperidin-2-yl)methoxy)-1-(4-(1-methylpiperidin-4-yl)piperazin-1-yl)ethanone dihydrochloride] | 98.2% | 100% | – | –
9 | CCN(Cc1ccncc1)C(=O)COCC1CCCN1S(=O)(=O)c1c(C)cc(OC)cc1C (stereo not drawn) [Example 466, N-ethyl-2-((1-(4-methoxy-2,6-dimethylphenylsulfonyl)pyrrolidin-2-yl)methoxy)-N-(pyridin-4-ylmethyl)acetamide] | 92.5% | 99.7% | – | –
10 | COc1cc(C)c(S(=O)(=O)N2CCCCC2COCC(=O)N2CCCC2CN2CCCCC2)c(C)c1 (stereo not drawn) [Example 399, 2-((1-(4-methoxy-2,6-dimethylphenylsulfonyl)piperidin-2-yl)methoxy)-1-(2-(piperidin-1-ylmethyl)pyrrolidin-1-yl)ethanone] | 93% | 102% | – | –
11 | Cc1cc(C)c(S(=O)(=O)N2Cc3ccccc3CC2COCC(=O)NCc2ccc(CN3CCCC3)cc2)c(C)c1 (stereo not drawn) [Example 83, N-(4-pyrrolidin-1-ylmethyl-benzyl)-2-[2-(2,4,6-trimethyl-phenylsulfonyl)-1,2,3,4-tetrahydro-isoquinolin-3-ylmethoxy]-acetamide] | 43.9% | 30.8% | – | –
12 | COc1cc(C)c(S(=O)(=O)N2CCCCC2COCC(=O)N2CCCCCC2c2ccc(N(C)C)cc2)c(C)c1 (stereo not drawn) [Example 400, 1-(2-(4-(dimethylamino)phenyl)azepan-1-yl)-2-((1-(4-methoxy-2,6-dimethylphenylsulfonyl)piperidin-2-yl)methoxy)ethanone] | 62% | 102% | – | –
13 | CN1CCC(N2CCN(C(=O)COCC3CCCCN3S(=O)(=O)c3ccccc3C(F)(F)F)CC2)CC1 (stereo not drawn) [Example 571, 1-(4-(1-methylpiperidin-4-yl)piperazin-1-yl)-2-((1-(2-(trifluoromethyl)phenylsulfonyl)piperidin-2-yl)methoxy)ethanone] | 104% | 100% | – | –
14 | COc1cccc(N2CCN(C(=O)COCC3CCCCN3S(=O)(=O)c3c(C)cc(OC)cc3C)CC2)c1 (stereo not drawn) [Example 288, 2-((1-(4-methoxy-2,6-dimethylphenylsulfonyl)piperidin-2-yl)methoxy)-1-(4-(3-methoxyphenyl)piperazin-1-yl)ethanone] | 102% | 93.3% | – | –
15 | O=C(COCC1CCCN1S(=O)(=O)c1c(Cl)cc(Cl)cc1Cl)NCc1ccc(CN2CCOCC2)cc1 (stereo not drawn) [Example 49, N-(4-morpholin-4-ylmethyl-benzyl)-2-[1-(2,4,6-trichloro-phenylsulfonyl)-pyrrolidin-2-ylmethoxy]-acetamide] | 65.9% | 92.3% | – | –
16 | COc1cc(C)c(S(=O)(=O)N2CCCCC2COCC(=O)NCc2cccc(N3CCN(C)CC3)c2)c(C)c1 (stereo not drawn) [Example 433, 2-((1-(4-methoxy-2,6-dimethylphenylsulfonyl)piperidin-2-yl)methoxy)-N-(3-(4-methylpiperazin-1-yl)benzyl)acetamide] | 103% | 100% | – | –

More lines, now with the values ahead:

Row | inhibition at 10 µM (human B1R receptor) | inhibition at 10 µM (B1R receptor of the rat) | B1R Antagonism, human [10 μM] % Inhibition (human B1R receptor; test substance 10 μM, hB1R CHO K1 cells) | B1R Antagonism, rat [10 μM] % Inhibition (B1R receptor of the rat; test substance 10 μM, rB1R CHO K1 cells) | SMILES
17 | 106% | 100% | – | – | COc1cc(C)c(S(=O)(=O)N2CCCCC2COCC(=O)N2CCC(N3CCn4cccc4C3)CC2)c(C)c1 (stereo not drawn) [Example 211, 1-(4-(3,4-dihydropyrrolo[1,2-a]pyrazin-2(1H)-yl)piperidin-1-yl)-2-((1-(4-methoxy-2,6-dimethylphenylsulfonyl)piperidin-2-yl)methoxy)ethanone]
18 | 45.3% | 22.5% | – | – | Cc1cc(C)c(S(=O)(=O)N2CCCCC2COCC(=O)NCc2ccccc2N2CCN(C)CC2)c(C)c1 (stereo not drawn) [Example 80, N-[2-(4-methyl-piperazin-1-yl)-benzyl]-2-[1-(2,4,6-trimethyl-phenylsulfonyl)-piperidin-2-ylmethoxy]-acetamide]
19 | 99.3% | 100% | – | – | CN(C)CCN(Cc1ccccc1)C(=O)COCC1CCCCN1S(=O)(=O)c1c(Cl)cccc1Cl (stereo not drawn) [Example 489, N-benzyl-2-((1-(2,6-dichlorophenylsulfonyl)piperidin-2-yl)methoxy)-N-(2-(dimethylamino)ethyl)acetamide]
20 | – | – | 102.3% | 83.46% | O=C(COCC1CCCCN1S(=O)(=O)c1cccc2ccccc12)N1CCC(N2CCCCC2)CC1 (stereo not drawn) [Example 235]
21 | 102% | 97.9% | – | – | COc1ccc(C(CNC(=O)COCC2CCCCN2S(=O)(=O)c2c(C)cc(OC)cc2C)N2CCCC2)cc1 (stereo not drawn) [Example 252, 2-((1-(4-methoxy-2,6-dimethylphenylsulfonyl)piperidin-2-yl)methoxy)-N-(2-(4-methoxyphenyl)-2-(pyrrolidin-1-yl)ethyl)acetamide]
22 | 38.5% | 81.3% | – | – | Cc1cc(S(=O)(=O)N2CCCCC2COCC(=O)N2CCN(Cc3ccccc3)CC2)c(C)cc1Cl (stereo not drawn) [Example 568, 1-(4-benzylpiperazin-1-yl)-2-((1-(4-chloro-2,5-dimethylphenylsulfonyl)piperidin-2-yl)methoxy)ethanone]
23 | 104% | 99.8% | – | – | COc1cc(C)c(S(=O)(=O)N2c3ccccc3CCC2COCC(=O)N2CCN(C3CCN(C)CC3)CC2)c(C)c1 (stereo not drawn) [Example 202, 2-((1-(4-methoxy-2,6-dimethylphenylsulfonyl)-1,2,3,4-tetrahydroquinolin-2-yl)methoxy)-1-(4-(1-methylpiperidin-4-yl)piperazin-1-yl)ethanone]
24 | 43.2% | 0% | – | – | O=C(COCC1CCCCN1S(=O)(=O)c1ccc(Cl)c(Cl)c1)N1CCN(c2ccccc2F)CC1 (stereo not drawn) [Example 86, 2-[1-(3,4-dichloro-phenylsulfonyl)-piperidin-2-ylmethoxy]-1-[4-(2-fluoro-phenyl)-piperazin-1-yl]-ethanone]
